Substitutions are numbered along the chain they refer to. Structures can show the parent of a compound that is named as a salt.
What was measured:
[1] = target: T1, MRGPRX2-WT (wild-type MRGPRX2 receptor) (Homo sapiens, UniProt Q96LB1); assay: Primary HTS, Ca2+ mobilization (fluorescence ratio, B-score) in HEK293-Gα15 cells stably expressing wild-type MRGPRX2; type: cell-based; details: 10 μM compound
T1 construct: expressed in transfected cells
T1 sequence (Q96LB1 1-330): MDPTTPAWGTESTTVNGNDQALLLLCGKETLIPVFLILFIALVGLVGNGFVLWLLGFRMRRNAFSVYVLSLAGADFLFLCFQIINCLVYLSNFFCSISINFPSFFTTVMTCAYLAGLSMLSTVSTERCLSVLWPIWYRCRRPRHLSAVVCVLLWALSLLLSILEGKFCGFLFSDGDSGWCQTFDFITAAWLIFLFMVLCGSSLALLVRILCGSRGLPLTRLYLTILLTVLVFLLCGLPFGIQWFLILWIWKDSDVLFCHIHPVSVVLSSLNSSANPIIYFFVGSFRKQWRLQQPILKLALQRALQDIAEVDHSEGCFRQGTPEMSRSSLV
Description: (§1) We performed an experimental HTS on the Johns Hopkins Drug Library, which includes 1,811 (57%) FDA-approved drugs among 3,456 total compounds (28% of all known drugs worldwide) ([15]). We performed the HTS at the Johns Hopkins University ChemBioCORE Facility and employed HEK293-Gα15 cell lines that stably expressed MRGPRX2 protein.
(§2) We utilized 10 μM compounds (each compound was tested in triplicate) and calculated the compound effect using the signal-to-background fluorescence ratio (see Supplementary Methods).
(§3) In the HTS, we determined MRGPRX2 activation by a Ca^2+ mobilization assay that recorded a fluorescence change by utilizing a Functional Drug Screening System (FDSS 6000; Hamamatsu); we evaluated the compound effect using the calculated fluorescence ratio. We further applied the B-score normalization, which provided robust corrections for variation in fluorescence ratio ([22]).
(§4) We performed an experimental high-throughput screening (HTS) on the Johns Hopkins Drug Library (JHDL), which includes 1,811 (57%) FDA-approved drugs among 3,456 total compounds (28% of all known drugs worldwide). The remaining compounds in JHDL are catalogued in one or more of the resources below: British Approved Names (BAN); Dénominations Communes Françaises (DCF); International Nonproprietary Names (INN); Japanese Adopted Names (JAN); MI (Merck Index); National Formulary drug name (NF); and United States Accepted Names (USAN). The JHU drug library is stocked in 96 well plates at 10 mM in 100% DMSO and stored at -80 °C. We used a final concentration of 10 uM for each compound and DMSO concentration of 0.1% (tested in triplicate). […] We evaluated compound effect using the calculated fluorescence ratio. We further calculated B-scores, which are a relative potency score similar to Z scores in that they are the ratio of an adjusted raw value in the numerator to a measure of variability in the denominator.

[2] = target: T2, MRGPRX2-MUT (MRGPRX2 N62S mutation) (Homo sapiens, UniProt Q96LB1, N62S); assay: Primary HTS, Ca2+ mobilization (fluorescence ratio, B-score) in HEK293-Gα15 cells stably expressing the MRGPRX2 N62S mutation; type: cell-based; details: for B-scores (MUT): 10 μM compound, MRGPRX2-MUT (N62S) cells; for Change of B-scores (%): 10 μM
T2 construct: expressed in transfected cells
T2 sequence (Q96LB1 1-330 N62S): T1 sequence (Q96LB1 1-330) with N62S
Description: as §1, §2, §3, §4

[3] = MRGPRX2-MUT in comparison to MRGPRX2-WT cells, Supplementary Table 1
[4] = MRGPRX2-MUT in comparison to MRGPRX2-WT cells, Table 1
[5] = MRGPRX2-MUT versus MRGPRX2-WT cells, Supplementary Table 2

Compound | B-scores (WT) ([1]; Supplementary Table 1) | B-scores (MUT) ([2]; Supplementary Table 1) | Change of B-scores (%) [2, 3] | B-scores (WT) ([1]; Supplementary Table 2) | B-scores (WT) ([1]; Table 1) | B-scores (MUT) ([2]; Supplementary Table 2) | B-scores (MUT) ([2]; Table 1) | Change of B-scores (%) [2, 4] | Change of B-scores (%) [2, 5]
COc1cc(C(=O)NCc2ccc(OCCN(C)C)cc2)cc(OC)c1OC [Trimethobenzamide Hydrochloride] | 18.56 | 0.14 | -99.27% | – | – | – | – | – | –
Cc1ccc(NC(=O)c2ccc(CN3CCN(C)CC3)cc2)cc1Nc1nc(-c2cccnc2)cs1 [Masitinib] | 27.71 | 3.82 | -86.20% | 27.71 | 27.71 | 3.82 | 3.82 | -86.20% | -86.2%
O=C(O)c1cn(-c2ccc(F)cc2)c2cc(N3CCNCC3)c(F)cc2c1=O [Sarafloxacin hydrochloride] | – | – | – | 15.97 | – | 0 | – | – | -100%
COc1ccc(CN(CCN(C)C)c2ccccn2)cc1 [Pyrilamine] | – | – | – | 13.36 | – | 0.23 | – | – | -98.24%
CN(C)CCC(c1ccc(Br)cc1)c1ccccn1 (centres unmarked) [Brompheniramine] | 18.22 | 0.64 | -96.48% | 18.22 | 18.22 | 0.64 | 0.64 | -96.48% | -96.48%
CC(=O)c1ccc2c(c1)N(CCCN(C)C)c1ccccc1S2 [Acepromazine] | – | – | – | 22.99 | – | 43.26 | – | – | 88.18%
Cc1ccc(/C(=C\CN2CCCC2)c2ccccn2)cc1.Cl [Triprolidine Hydrochloride] | 20.71 | 0.68 | -96.71% | – | 20.71 | – | 0.68 | -96.71% | –
COc1ccc2c3c1O[C@H]1C[C@@H](O)C=C[C@@]31CCN(C)C2 [Galantamine Hydrobromide] | 19.90 | 1.33 | -93.34% | – | – | – | – | – | –
CN(C)CCC(c1ccc(Cl)cc1)c1ccccn1 (centres unmarked) [Chlorpheniramine] | – | – | – | 9.6 | – | 0.88 | – | – | -90.88%
O=C(O)c1cn(C2CC2)c2cc(N3CCNCC3)c(F)cc2c1=O [Ciprofloxacin] | – | – | – | 7.33 | – | 1.91 | – | – | -74%
CCCCC(CC)CNC(=N)NC(=N)NCCCCCCNC(=N)NC(=N)NCC(CC)CCCC (centres unmarked) [Alexidine Hydrochloride] | 30.77 | 1.68 | -94.54% | – | 30.77 | – | 1.68 | -94.54% | –
CCn1cc(C(=O)O)c(=O)c2cc(F)c(N3CCN(C)CC3)cc21.CS(=O)(=O)O [Pefloxacine Mesylate] | – | – | – | 7.86 | – | -0.79 | – | – | -110.02%
CC12CC3CC(C)(C1)CC(N)(C3)C2 [Memantine Hydrochloride] | 26.34 | – | -99.82% | – | – | – | – | – | –
CO[C@H]1/C=C/O[C@@]2(C)Oc3c(C)c(O)c4c(O)c(c(/C=N/N5CCN(C)CC5)c(O)c4c3C2=O)NC(=O)/C(C)=C\C=C\[C@H](C)[C@H](O)[C@@H](C)[C@@H](O)[C@@H](C)[C@H](OC(C)=O)[C@@H]1C [Rifampin] | 23.94 | 0.37 | -98.45% | – | 23.94 | – | 0.37 | -98.45% | –
CN1[C@@H]2CC[C@H]1C[C@@H](OC(c1ccccc1)c1ccccc1)C2 [Benztropine Methanesulfonate] | 26.25 | 2.81 | -89.29% | – | – | – | – | – | –
COc1ccc(CCN(C)CCCC(C#N)(c2ccc(OC)c(OC)c2)C(C)C)cc1OC (centres unmarked) [Verapamil] | – | – | – | 5.44 | – | -1.44 | – | – | -126.44%
C[N+](C)(C)CCOC(N)=O [Carbachol] | 42.55 | 63.57 | 49.41% | 42.55 | – | 63.57 | – | – | 49.41%
Nc1ncnc2c1ncn2[C@@H]1O[C@H](CO)[C@@H](O)[C@H]1O [Adenosine] | 35.61 | 0.32 | -99.09% | – | – | – | – | – | –
CN(C)CCc1c[nH]c2ccc(CS(=O)(=O)N3CCCC3)cc12 [Almotriptan] | 18.49 | 2.98 | -83.88% | – | – | – | – | – | –
CC(=O)O.CC(=O)O.CC[C@H](C)C[C@H](C)CCCCCCCCC(=O)N[C@H]1C[C@@H](O)[C@@H](NCCN)NC(=O)[C@@H]2[C@@H](O)CCN2C(=O)[C@H]([C@H](O)CCN)NC(=O)[C@H]([C@H](O)[C@@H](O)c2ccc(O)cc2)NC(=O)[C@@H]2C[C@@H](O)CN2C(=O)[C@H]([C@@H](C)O)NC1=O [Caspofungin acetate] | 29.98 | 16.90 | -43.63% | – | – | – | – | – | –
CC(=O)[C@]1(O)Cc2c(O)c3c(c(O)c2[C@@H](O[C@H]2C[C@H](N)[C@H](O)[C@H](C)O2)C1)C(=O)c1ccccc1C3=O [Idarubicin hydrochloride] | – | – | – | 11.57 | – | 39.57 | – | – | 241.86%
CNCCC=C1c2ccccc2CCc2ccccc21 [Nortriptyline Hydrochloride] | – | – | – | 16.29 | – | 2.78 | – | – | -82.96%
N=C(N)c1ccc(OCCCCCOc2ccc(C(=N)N)cc2)cc1 [Pentamidine] | 24.12 | 8.70 | -63.92% | – | – | – | – | – | –
CN1[C@@H]2CC[C@H]1C[C@@H](OC(=O)C(CO)c1ccccc1)C2 (some centres unmarked) [Atropine Sulfate Monohydrate] | 24.16 | 0.90 | -96.27% | 24.16 | – | 0.9 | – | – | -96.27%
